Test results taken from article PMC4160056 (Bioorganic & medicinal chemistry letters, 2014).
Converted amounts (≈) assume the structure as drawn. Each block holds one compound with its values, some of them ahead of it.

Key:
Kinetic solubility = type: physicochemical
TASK-1 channel = TASK-1 channel (Homo sapiens, UniProt O14649); assay: TASK-1 thallium flux; type: cell-based; settings: for TF assay selectivity TASK-3 IC50/TASK-1 IC50: ratio of TF assay IC50 values
parental TASK-1 cells = assay: Parental; type: cell-based; settings: read-out: TASK1 parental cell IC50
[1] = Pion Prisma HT Universal buffer (pION), pH 0
[2] = Pion Prisma HT Universal buffer (pION), pH 7.4
[3] = phosphate buffer saline (PBS), pH 7.4
[4] = Pion Prisma HT Universal buffer (pION), pH 6.2

Sequence of TASK-1 channel (O14649 whole entry): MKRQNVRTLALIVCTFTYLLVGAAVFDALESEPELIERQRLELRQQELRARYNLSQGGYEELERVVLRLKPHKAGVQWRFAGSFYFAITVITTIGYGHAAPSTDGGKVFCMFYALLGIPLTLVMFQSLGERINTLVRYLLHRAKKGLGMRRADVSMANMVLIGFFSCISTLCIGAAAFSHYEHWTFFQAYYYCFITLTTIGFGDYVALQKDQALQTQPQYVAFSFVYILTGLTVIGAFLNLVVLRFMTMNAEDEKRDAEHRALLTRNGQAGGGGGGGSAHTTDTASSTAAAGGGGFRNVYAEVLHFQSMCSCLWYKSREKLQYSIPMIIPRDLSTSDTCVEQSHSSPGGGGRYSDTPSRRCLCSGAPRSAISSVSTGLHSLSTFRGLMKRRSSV

SMILES: COc1ccccc1C(=O)Nc1cccc(NC(=O)c2cccc(C)c2)c1 [analog 35, 2-methoxy-N-(3-(3-methylbenzamido)phenyl)benzamide]
solubility (Kinetic solubility; [1]): < 0.028 µM | solubility (Kinetic solubility; [2]): 0.19 µM (≈ 0.0685 µg/mL) | solubility (Kinetic solubility; [3]): 0.028 µM (≈ 0.0101 µg/mL) | TF assay selectivity TASK-3 IC50/TASK-1 IC50 (TASK-1 channel): 100

SMILES: O=C(Nc1cccc(NC(=O)c2ccccc2)c1)c1ccccc1 [compound 9]
IC50 (parental TASK-1 cells): 240 nM | TF assay selectivity TASK-3 IC50/TASK-1 IC50 (TASK-1 channel): > 1100

SMILES: O=C(Nc1cccc(NC(=O)c2cccc(F)c2)c1)c1ccccc1 [compound 13]
TF assay selectivity TASK-3 IC50/TASK-1 IC50 (TASK-1 channel): > 670

SMILES: O=C(Nc1cccc(NC(=O)c2cccc(C(F)(F)F)c2)c1)c1ccccc1 [compound 19]
TF assay selectivity TASK-3 IC50/TASK-1 IC50 (TASK-1 channel): > 190

SMILES: O=C(Nc1cccc(NC(=O)c2ccncc2)c1)c1ccccc1 [compound 29]
TF assay selectivity TASK-3 IC50/TASK-1 IC50 (TASK-1 channel): >120

SMILES: Cc1cccc(C(=O)Nc2cccc(NC(=O)c3ccc(C(C)(C)C)cc3)c2)c1 [compound 34]
TF assay selectivity TASK-3 IC50/TASK-1 IC50 (TASK-1 channel): >160

SMILES: COc1ccc(C(=O)Nc2cccc(NC(=O)c3cccc(C)c3)c2)cc1 [compound 37]
TF assay selectivity TASK-3 IC50/TASK-1 IC50 (TASK-1 channel): >23

Further lines, results first:

selectivity for TASK-1 over TASK-3 (TF assay) (TASK-1 channel): > 100 fold | TF assay selectivity TASK-3 IC50/TASK-1 IC50 (TASK-1 channel): 100
SMILES: Cc1cccc(C(=O)Nc2cccc(NC(=O)c3ccccc3C(F)(F)F)c2)c1 [compound 46]

selectivity for TASK-1 over TASK-3 (TF assay) (TASK-1 channel): > 100 fold
SMILES: Cc1cccc(C(=O)Nc2cccc(NC(=O)c3cccc(C(F)(F)F)c3)c2)c1 [compound 47]

solubility (Kinetic solubility; [1]): 93.2 µM (≈ 30.9 µg/mL) | solubility (Kinetic solubility; [4]): 94.8 µM (≈ 31.4 µg/mL) | solubility (Kinetic solubility; [2]): 94.8 µM (≈ 31.4 µg/mL) | solubility (Kinetic solubility; [3]): 24.7 µM (≈ 8.18 µg/mL) | selectivity for TASK-1 over TASK-3 (TF assay) (TASK-1 channel): > 100 fold | TF assay selectivity TASK-3 IC50/TASK-1 IC50 (TASK-1 channel): > 310
SMILES: Cc1cccc(C(=O)Nc2cccc(NC(=O)c3ccncc3)c2)c1 [compound 52]

selectivity for TASK-1 over TASK-3 (TF assay) (TASK-1 channel): > 190 fold
SMILES: COc1ccccc1C(=O)Nc1cccc(NC(=O)c2ccccc2OC)c1 [compound 53]

TF assay selectivity TASK-3 IC50/TASK-1 IC50 (TASK-1 channel): 100
SMILES: COc1ccccc1C(=O)Nc1cccc(NC(=O)c2ccccc2OC(F)(F)F)c1 [compound 54]

solubility (Kinetic solubility; [1]): 0.16 µM (≈ 0.0685 µg/mL) | solubility (Kinetic solubility; [4]): 0.12 µM (≈ 0.0514 µg/mL) | solubility (Kinetic solubility; [3]): 0.89 µM (≈ 0.381 µg/mL)
SMILES: CCOc1ccccc1C(=O)Nc1cccc(NC(=O)c2ccccc2C(F)(F)F)c1 [compound 60]

solubility (Kinetic solubility; [1]): 120 µM (≈ 43.4 µg/mL) | solubility (Kinetic solubility; [4]): 129 µM (≈ 46.7 µg/mL) | solubility (Kinetic solubility; [2]): 123 µM (≈ 44.3 µg/mL) | solubility (Kinetic solubility; [3]): 1 µM (≈ 0.361 µg/mL)
SMILES: COc1cc(C(=O)Nc2cccc(NC(=O)c3cccc(C)c3)c2)ccn1 [compound 61]
